Reference: patent US7812034B2, “Method of using protease inhibitors for the treatment of liposarcomas” (City of Hope, priority 2003, dated 2010)
Read-outs that look alike come from different tables or passages of the source.

How the values were obtained:
[1] = tested on: advanced soft tissue sarcomas; details: patients; cited from earlier work
[2] = humans, cited from earlier work; for Cmax: recommended dose and regimen, read-out: maximum plasma concentration (Cmax)
SW872 liposarcoma cells = assay: Clonogenic assay, SW872 liposarcoma cells; type: cell-based, human; details: for concentration that inhibits SW872 liposarcoma clonogenicity (colony growth): 4 hours treatment, 2000 cells plated, colonies scored at 7-10 days, FIG. 1
Method: The experimental conditions were intended to bracket these clinically relevant concentrations.
Two thousand treated cells were plated into 60 mm tissue culture plates in triplicate, and colonies (≧40 cells/colony) were scored at 7-10 days with the Eagle Eye II gel documentation system (Stratagene, La Jolla, Calif.). FIG. 1 summarizes the mean and standard deviation of the triplicate colony counts for each experimental condition. […] Ritonavir inhibits colony growth if administered in a concentration of at least 10 μM.
(§1) One thousand treated cells were plated in triplicate in this instance, and colonies were similarly scored.

[3] = tested on: human 293 embryonic kidney cells; assay: Clonogenic assay, 293 embryonic kidney cells; type: cell-based; details: increasing concentrations, 1000 cells plated, FIG. 2
Method: as §1

[4] = tested on: human HT1080 fibrosarcoma cells; assay: Clonogenic assay, HT1080 fibrosarcoma cells; type: cell-based; details: increasing concentrations, 1000 cells plated, FIG. 2
Method: as §1

S2 liposarcoma cell line = assay: Clonogenic assay, S2 high-grade liposarcoma cells; type: cell-based, human; details: 2.5, 10, 20 μM, 4 hours, FIG. 3
Method: A second high-grade liposarcoma cell line, S2 (a kind gift from Dr. Wei Wen, City of Hope Medical Center), was tested for protease inhibitor (PI) therapy for liposarcoma. The purpose of the experiment was to determine whether nelfinavir-mediated inhibition of liposarcoma clonogenicity could be reproduced in S2 cells. As with the SW872 experiment, S2 cells […], indinavir, ritonavir, and saquinavir. […] Colonies (≧40 cells/colony) were scored at 7-10 days with the Eagle Eye II gel documentation system (Stratagene, La Jolla, Calif.). FIG. 3 summarizes the mean and standard deviation of the triplicate colony counts for each experimental condition.

SREBP-1 [5] = assay: Western blot of SREBP-1 protein in S2 cells; type: cell-based, human; details: 10 μM, FIG. 4
Text: In order to influence transcription, the NH2-terminal domain of SREBP-1 must be proteolytically released from the membrane to enter the nucleus (68 kDa).

SREBP-1 [6] = assay: SREBP-1 protein levels in SW872 cells; type: cell-based, human
Method: In order to influence transcription, the NH2-terminal domain of SREBP-1 must be proteolytically released from the membrane to enter the nucleus (68 kDa). […] Alterations in both SREBP-1 and PPARγ levels have been proposed as the mechanisms underlying of HIV protease-induced lipodystrophy (15-18, 21). To determine whether a similar mechanism is responsible for the observation of nelfinavir-mediated inhibition of liposarcoma clonogenicity, whole cell extracts are prepared from control and nelfinavir-treated SW872 cells for SDS-PAGE electrophoresis. After transfer to polyvinylidene fluoride membranes, the extracts are probed with rabbit polyclonal antibodies to SREBP-1 and PPARγ (Santa Cruz Biotechnology, Santa Cruz, Calif.). Protein detection is performed by ECL using commercially available reagents as per the manufacturer's instructions (Applied Biosystems, Foster City, Calif.). To control for protein-loading, the membranes are stripped and reprobed with antibody to β-actin (Santa Cruz Biotechnology).

[7] = cited from earlier work
[8] = cited from earlier work; remark: listed apart in the source
[9] = tested on: differentiated adipocytes; details: incubation for 48 hours; cited from earlier work
pre-adipocytes = details: incubation for 48 hours; cited from earlier work
[10] = tested on: intermediate to high-grade liposarcoma; details: patients with liposarcoma; cited from earlier work

Q: For `COc1cccc2c1C(=O)c1c(O)c3c(c(O)c1C2=O)C[C@@](O)(C(=O)CO)C[C@@H]3O[C@H]1C[C@H](N)[C@H](O)[C@H](C)O1` [doxorubicin], which response rate [1] is on record?
A: The response rate was “about 25%”.

Q: For `CC(C)(C)NC(=O)[C@@H]1CN(Cc2cccnc2)CCN1C[C@@H](O)C[C@@H](Cc1ccccc1)C(=O)N[C@H]1c2ccccc2C[C@H]1O` [indinavir], which Cmax [2] is on record?
A: The Cmax was 12.5 µM.

Q: For `Cc1c(O)cccc1C(=O)N[C@@H](CSc1ccccc1)[C@H](O)CN1C[C@H]2CCCC[C@H]2C[C@H]1C(=O)NC(C)(C)C` [nelfinavir], which “concentration that inhibits SW872 liposarcoma clonogenicity (colony growth)” value (SW872 liposarcoma cells) is on record?
A: The value was no less than 2.5 µM.

Q: What about the “colonies in the SW872 cell line” value (SW872 liposarcoma cells; nelfinavir 20 μM, 1000 cells plated, FIG. 2) of the same compound?
A: Its value is “marked reduction in colonies”.

Q: What about the “embryonic kidney (293) clonogenicity” value [3] of the same compound?
A: The value was “minimally affecting”.

Q: And the “fibrosarcoma (HT1080) clonogenicity” value [4]?
A: The value was “minimally affecting”.

Q: What about the “clonogenicity in the S2 liposarcoma cell line” value (S2 liposarcoma cell line) of the same compound?
A: The value was “inhibits clonogenicity”.

Q: And the “SREBP-1 protein (nuclear active and precursor forms)” value (SREBP-1 [5])?
A: The value was “upregulated in a time-dependent fashion”.

Q: What about the “expression of SREBP-1” value (SREBP-1 [6]) of the same compound?
A: Its value is “upregulates expression of SREBP-1”.

Q: And the oral bioavailability ([2]; administered with food)?
A: The oral bioavailability was 70-80%.

Q: What about the Cmax [2] of the same compound?
A: Its Cmax is 6.97 µM.

Q: And the oral bioavailability ([7]; fed rats)?
A: The oral bioavailability was 43%.

Q: What about the “plasma Cmax” value ([7]; rat, daily gavage 50 mg/kg in 5% dextrose or propylene glycol-water) of the same compound?
A: The value was 1340 to 1650 ng/mL.

Q: What about the Cmax ([7]; rat, daily gavage 50 mg/kg in 5% dextrose or propylene glycol-water, read-out: plasma Cmax) of the same compound?
A: Its Cmax is 2.33 to 2.87 µM.

Q: And the “time plasma levels were maintained after dosing” value ([7]; rat, oral 50 mg/kg)?
A: The value was “up to 7 hours”.

Q: What about the water solubility [8] of the same compound?
A: The water solubility was “water-soluble”.

Q: What about the “apoptosis in differentiated adipocytes” value [9] of the same compound?
A: The value was “induced apoptosis”.

Q: And the apoptosis in pre-adipocytes (pre-adipocytes)?
A: Its apoptosis in pre-adipocytes is “not in pre-adipocytes”.

Q: For `CC(C)c1nc(CN(C)C(=O)N[C@H](C(=O)N[C@@H](Cc2ccccc2)C[C@H](O)[C@H](Cc2ccccc2)NC(=O)OCc2cncs2)C(C)C)cs1` [ritonavir], which “concentration that inhibits SW872 liposarcoma clonogenicity (colony growth)” value (SW872 liposarcoma cells) is on record?
A: The value was “at least 10 μM”.

Q: What about the Cmax [2] of the same compound?
A: The Cmax was 15.5 µM.

Q: What about the “apoptosis in differentiated adipocytes” value [9] of the same compound?
A: The value was “induced apoptosis”.

Q: And the apoptosis in pre-adipocytes (pre-adipocytes)?
A: Its apoptosis in pre-adipocytes is “not in pre-adipocytes”.

Q: Which Cmax [2] does the source give for `CC(C)(C)NC(=O)[C@@H]1C[C@@H]2CCCC[C@@H]2CN1C[C@@H](O)[C@H](Cc1ccccc1)NC(=O)[C@H](CC(N)=O)NC(=O)c1ccc2ccccc2n1` [saquinavir] here?
A: The Cmax was 3.67 µM.

Q: And the “apoptosis in differentiated adipocytes” value [9]?
A: Its value is “induced apoptosis”.

Q: And the apoptosis in pre-adipocytes (pre-adipocytes)?
A: Its apoptosis in pre-adipocytes is “not in pre-adipocytes”.

Q: With `Cc1c(C)c2c(c(C)c1O)CCC(C)(COc1ccc(CC3SC(=O)NC3=O)cc1)O2` (centres unmarked) [troglitazone] as the compound, how does the toxicity of therapy [10] read?
A: Its toxicity of therapy is “negligible”.
